# Assay results: ChEMBL document CHEMBL1147290, “Toxicants from mangrove plants, V. Isolation of the piscicide, 2-hydroxy-5-methoxy-3-undecyl-1,4 benzoquinone (5-O-methylembelin) from Aegiceras corniculatum” (J Nat Prod, 1989)
# Legend:
# Oreochromis niloticus = assay: Toxicity in Tilapia nilotica at 1 ppm within 75 mins; assay type: organism-based; conditions: in vivo, 1.25 h
# Globisporangium ultimum = assay: Antifungal activity against Pythium ultimum at 1 mg; assay type: functional; conditions: read-out: IZ
smiles,measurement,setting,value
CCCCCCCCCCCC1=C(O)C(=O)C=C(OC)C1=O [5-O-METHYLEMBELIN],Activity,Oreochromis niloticus,Toxic
same,zone of inhibition at 1000 µg/disc,Globisporangium ultimum,8 mm
